Patent US20190016689A1, “NOVEL FLUORINATED QUINAZOLINE DERIVATIVES AS EGFR INHIBITORS” (TRILLIUM THERAPEUTICS INC., priority 2016, published 2019)

Legend:
[1] = Evaluation of P-gp efflux: Caco-2 permeability; conditions: human, Caco-2, pH 7.4
Method: (§1) At this stage of growth, cell monolayers were fully polarized and differentiated.
(§2) The permeability assay buffer was Hanks Balanced Salt Solution containing 10 mM HEPES and 15 mM glucose at a pH of 7.4. The dosing buffer contained 5 μM metoprolol (positive control), 5 μM atenolol (negative control) and 100 μM lucifer yellow. The buffer in the receiver chamber also contained 1% bovine serum albumin (BSA). The dosing solution concentration was 5 μM in the assay buffer. Digoxin (20 μM) was used as Pgp substrate control.
(§3) The known Pgp inhibitor was co-dosed at 50 μM with compound at 5 μM.
(§4) Cell monolayers were dosed on the apical side (A-to-B) or basolateral side (B-to-A) and incubated at 37° C. in a shaker (65 rpm). Samples were taken from the donor and receiver chambers at 120 minutes. Each determination was performed in duplicate.
(§5) Narrow-window mass extraction LC/MS analysis was performed for all samples from this study using a Waters Xevo quadrupole time-of-flight (QTof) mass spectrometer, to determine relative peak areas of parent compound. The percent of transported drug was calculated based on these peak areas, relative to the initial, dosing concentration.

P-gp = experiment: Evaluation of P-gp efflux: Caco-2 permeability; conditions: human, Caco-2, pH 7.4
Method: as §1, §2, §3, §4, §5

EGFR (T790M) = EGFR (T790M) (Homo sapiens, UniProt P00533, T790M, form not given); experiment: Kinase HotSpot profiling (33P-ATP filter binding); assay type: biochemical
Method: Base Reaction buffer; 20 mM Hepes (pH 7.5), 10 mM MgCl2, 1 mM EGTA, 0.02% Brij35, 0.02 mg/ml BSA, 0.1 mM Na3VO4, 2 mM DTT, 1% DMSO • Required cofactors are added individually to each kinase reaction
1. The indicated substrate was prepared in fresh Base Reaction Buffer.
2. Any required cofactors were added to the substrate solution above.
3. Indicated kinase was added into the substrate solution and gently mixed.
4. Compounds in DMSO were added into the kinase reaction mixture by Acoustic technology (Echo550; nanoliter range) and incubated for 20 minutes at room temperature.
5. 33P-ATP (specific activity 10 μCi/μl) was added into the reaction mixture to initiate the reaction.
6. The kinase reaction was incubated for 2 hours at room temperature
7. Reactions were spotted onto P81 ion exchange paper.
8. Kinase activity was detected by filter-binding method.
IC50 (nM) concentrations are illustrated in Table 5. This assay confirms that compounds of the application are effective inhibitors of the target EGFR receptors.

Chain of EGFR (T790M) (P00533 whole entry T790M, form open): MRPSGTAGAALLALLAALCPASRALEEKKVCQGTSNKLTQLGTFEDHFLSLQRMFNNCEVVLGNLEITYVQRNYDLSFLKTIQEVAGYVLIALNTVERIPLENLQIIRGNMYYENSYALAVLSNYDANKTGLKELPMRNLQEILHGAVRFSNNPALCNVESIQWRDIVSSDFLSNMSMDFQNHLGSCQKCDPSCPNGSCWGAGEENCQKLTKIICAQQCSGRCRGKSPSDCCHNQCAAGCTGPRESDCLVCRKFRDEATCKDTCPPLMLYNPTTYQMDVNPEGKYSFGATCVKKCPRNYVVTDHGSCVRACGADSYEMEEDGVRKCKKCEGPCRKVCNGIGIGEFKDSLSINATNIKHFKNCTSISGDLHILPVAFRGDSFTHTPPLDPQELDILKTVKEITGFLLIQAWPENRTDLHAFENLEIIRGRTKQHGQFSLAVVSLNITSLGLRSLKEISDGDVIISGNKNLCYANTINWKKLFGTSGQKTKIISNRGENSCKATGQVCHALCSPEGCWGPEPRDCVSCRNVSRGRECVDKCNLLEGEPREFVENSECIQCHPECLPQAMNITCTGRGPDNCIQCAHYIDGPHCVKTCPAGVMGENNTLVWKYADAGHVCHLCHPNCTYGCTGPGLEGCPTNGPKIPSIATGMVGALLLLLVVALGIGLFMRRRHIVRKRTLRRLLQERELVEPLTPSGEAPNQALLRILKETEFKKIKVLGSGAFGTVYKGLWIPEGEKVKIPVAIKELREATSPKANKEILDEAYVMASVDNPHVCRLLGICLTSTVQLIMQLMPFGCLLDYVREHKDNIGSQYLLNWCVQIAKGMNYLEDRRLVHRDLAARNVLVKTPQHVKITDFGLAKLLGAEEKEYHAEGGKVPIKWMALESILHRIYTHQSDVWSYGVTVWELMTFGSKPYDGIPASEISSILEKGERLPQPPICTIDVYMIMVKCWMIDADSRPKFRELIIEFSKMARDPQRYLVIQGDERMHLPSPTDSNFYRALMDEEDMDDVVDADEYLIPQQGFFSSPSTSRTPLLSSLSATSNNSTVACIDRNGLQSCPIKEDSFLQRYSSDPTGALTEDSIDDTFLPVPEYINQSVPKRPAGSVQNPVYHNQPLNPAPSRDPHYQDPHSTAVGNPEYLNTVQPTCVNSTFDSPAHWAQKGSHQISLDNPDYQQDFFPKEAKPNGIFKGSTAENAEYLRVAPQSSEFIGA

Row | Papp A→B at 120 min, 5 µM [1] [×10⁻⁶ cm/s] | Papp B→A at 120 min, 5 µM [1] [×10⁻⁶ cm/s] | efflux ratio at 120 min, 5 µM (P-gp) | IC50 (EGFR (T790M)) [nM] | Compound
1 | 21.1 | 15.8 | 0.75 |  | CC(C)NCC(O)COc1cccc2ccccc12 (stereo not drawn) [Propranolol]
2 |  |  |  | 13.7 | O=C(/C=C/CN1CC(F)(F)C1)Nc1cc2c(Nc3ccc(F)c(Cl)c3F)ncnc2cc1OCCOC(F)F [Example I-16, (E)-N-[4-(3-chloro-2,4-difluoro-anilino)-7-[2-(difluoromethoxy)ethoxy]quinazolin-6-yl]-4-(3,3-difluoroazetidin-1-yl)but-2-enamide]
3 |  |  |  | 62.8 | COc1cc2ncnc(Nc3ccc(F)c(Cl)c3)c2cc1NC(=O)/C=C/CN1CCC(OC(F)F)CC1 [Example I-18, (E)-N-[4-(3-chloro-4-fluoro-anilino)-7-methoxy-quinazolin-6-yl]-4-[4-(difluoromethoxy)-1-piperidyl]but-2-enamide]
4 |  |  |  | 5.56 | O=C(/C=C/CN1CCOCC1)Nc1cc2c(Nc3ccc(Cl)c(Cl)c3F)ncnc2cc1OCCOC(F)F [Example I-3, (E)-N-[4-(3,4-dichloro-2-fluoro-anilino)-7-[2-(difluoromethoxy)ethoxy]quinazolin-6-yl]-4-morpholino-but-2-enamide]
5 |  |  |  | 13.1 | O=C(/C=C/CN1CCC(OC(F)F)CC1)Nc1cc2c(Nc3ccc(F)c(Cl)c3)ncnc2cc1OCCOC(F)F [Example I-22, (E)-N-[4-(3-chloro-4-fluoro-anilino)-7-[2-(difluoromethoxy)ethoxy]quinazolin-6-yl]-4-[4-(difluoromethoxy)-1-piperidyl]but-2-enamide]
6 |  |  |  | 0.707 | CN(C)C/C=C/C(=O)Nc1cc2c(Nc3cccc(Cl)c3F)ncnc2cc1OCCOC(F)F [Example I-5, (E)-N-[4-(3-chloro-2-fluoro-anilino)-7-[2-(difluoromethoxy)ethoxy]quinazolin-6-yl]-4-(dimethylamino)but-2-enamide]
7 |  |  |  | 10.5 | O=C(/C=C/CN1CCOCC1)Nc1cc2c(Nc3cccc(Cl)c3F)ncnc2cc1OCCOC(F)F [Example I-7, (E)-N-[4-(3-chloro-2-fluoro-anilino)-7-[2-(difluoromethoxy)-ethoxy]quinazolin-6-yl]-4-morpholino-but-2-enamide]
8 |  |  |  | 79.5 | O=C(/C=C/CN1CCC(OC(F)F)CC1)Nc1cc2c(Nc3cccc(Cl)c3F)ncnc2cc1OCCOC(F)F [Example I-8, (E)-N-[4-(3-chloro-2-fluoro-anilino)-7-[2-(difluoromethoxy)-ethoxy]quinazolin-6-yl]-4-[4-(difluoromethoxy)-1-piperidyl]but-2-enamide]
9 | 0.75 | 22.7 | 30.4 |  | C[C@H]1O[C@@H](O[C@H]2[C@@H](O)C[C@H](O[C@H]3[C@@H](O)C[C@H](O[C@H]4CC[C@@]5(C)[C@H](CC[C@@H]6[C@@H]5C[C@@H](O)[C@]5(C)[C@@H](C7=CC(=O)OC7)CC[C@]65O)C4)O[C@@H]3C)O[C@@H]2C)C[C@H](O)[C@@H]1O [Digoxin]
10 |  |  |  | 16.4 | CN(C)C/C=C/C(=O)Nc1cc2c(Nc3ccc(Cl)c(Cl)c3F)ncnc2cc1OCCOC(F)F [Example I-2, (E)-N-[4-(3,4-dichloro-2-fluoro-anilino)-7-[2-(difluoromethoxy)ethoxy]quinazolin-6-yl]-4-(dimethylamino)but-2-enamide]
11 |  |  |  | 817 | COc1cc2ncnc(Nc3ccc(Cl)c(Cl)c3F)c2cc1NC(=O)/C=C/CN1CCC(OC(F)F)CC1 [Example I-17, (E)-N-[4-(3,4-dichloro-2-fluoro-anilino)-7-methoxy-quinazolin-6-yl]-4-[4-(difluoromethoxy)-1-piperidyl]but-2-enamide]
12 | 21.7 | 34.7 | 1.59 |  | COc1cc2nc(N3CCN(C(=O)c4ccco4)CC3)nc(N)c2cc1OC [Prazosin]
13 |  |  |  | 0.679 | C#Cc1cccc(Nc2ncnc3cc(OCCOC(F)F)c(NC(=O)/C=C/CN(C)C)cc23)c1F [Example I-25, (E)-N-[7-[2-(difluoromethoxy)ethoxy]-4-(3-ethynyl-2-fluoro-anilino)quinazolin-6-yl]-4-(dimethylamino)but-2-enamide]

Row | Compound | Papp A→B at 120 min, 5 µM [1] [×10⁻⁶ cm/s] | Papp B→A at 120 min, 5 µM [1] [×10⁻⁶ cm/s] | efflux ratio at 120 min, 5 µM (P-gp) | IC50 (EGFR (T790M)) [nM]
14 | O=C(/C=C/CN1CCCCC1)Nc1cc2c(Nc3ccc(F)c(Cl)c3F)ncnc2cc1OCCOC(F)F [Example I-10, (E)-N-[4-(3-chloro-2,4-difluoro-anilino)-7-[2-(difluoromethoxy)ethoxy]quinazolin-6-yl]-4-(1-piperidyl)but-2-enamide] |  |  |  | 0.156
15 | CN(C)C/C=C/C(=O)Nc1cc2c(Nc3ccc(F)c(Cl)c3F)ncnc2cc1OCCOC(F)F [Example I-9, (E)-N-[4-(3-chloro-2,4-difluoro-anilino)-7-[2-(difluoromethoxy)-ethoxy]quinazolin-6-yl]-4-(dimethylamino)but-2-enamide] |  |  |  | 0.0597
